Data from patent US20090028925A1, “Novel Phosphinic Acid-Containing Thyromimetics” (priority 2005, published 2009).

Columns and labels:
[1] = target: T1, human thyroid hormone receptors TRβ1 (Homo sapiens, UniProt P10828); test: Receptor binding to TRβ1 (gel filtration and scintillation proximity assay, labeled T3); conditions: SPA data; read-out: Ki TRβ
T1 construct: made in house; host or cells: Sf9 insect cells (baculovirus)
T1 sequence (P10828 1-461): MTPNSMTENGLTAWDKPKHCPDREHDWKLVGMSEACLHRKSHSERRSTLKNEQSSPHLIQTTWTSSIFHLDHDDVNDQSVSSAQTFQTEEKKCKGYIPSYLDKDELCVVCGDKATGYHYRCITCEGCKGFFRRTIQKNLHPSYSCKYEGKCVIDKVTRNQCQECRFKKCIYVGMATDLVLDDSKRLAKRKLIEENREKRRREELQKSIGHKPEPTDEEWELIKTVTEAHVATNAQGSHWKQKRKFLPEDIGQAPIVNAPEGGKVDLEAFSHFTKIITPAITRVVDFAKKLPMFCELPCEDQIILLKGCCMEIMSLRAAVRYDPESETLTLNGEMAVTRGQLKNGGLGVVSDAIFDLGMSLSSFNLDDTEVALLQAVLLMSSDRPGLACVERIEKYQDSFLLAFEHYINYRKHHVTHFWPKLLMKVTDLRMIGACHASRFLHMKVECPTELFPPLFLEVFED
T1 sequence (P19793 1-462 partner): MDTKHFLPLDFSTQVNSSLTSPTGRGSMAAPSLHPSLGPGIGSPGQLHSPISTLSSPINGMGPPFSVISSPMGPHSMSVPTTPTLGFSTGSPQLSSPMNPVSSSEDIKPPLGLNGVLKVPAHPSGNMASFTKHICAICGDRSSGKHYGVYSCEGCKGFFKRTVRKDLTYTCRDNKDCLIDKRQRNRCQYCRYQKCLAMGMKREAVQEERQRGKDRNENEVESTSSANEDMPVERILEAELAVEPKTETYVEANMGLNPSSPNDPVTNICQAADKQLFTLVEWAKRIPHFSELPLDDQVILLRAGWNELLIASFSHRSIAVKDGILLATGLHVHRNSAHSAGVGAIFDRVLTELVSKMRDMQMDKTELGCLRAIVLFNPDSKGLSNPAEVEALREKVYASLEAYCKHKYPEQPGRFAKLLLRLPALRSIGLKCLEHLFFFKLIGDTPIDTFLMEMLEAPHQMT

[2] = test system: liver mitochondrial glycerol phosphate dehydrogenase (mGPDH) activity; test: Subacute study in normal rats, continuous infusion: liver mGPDH activity; type: in vivo, rats (Sprague-Dawley); conditions: continuous infusion 1 mg/kg/day
From the text: (§1) Efficacy endpoints include serum cholesterol, liver mitochondrial glycerol phosphate dehydrogenase (mGPDH) activity and the expression of relevant liver genes (e.g., the LDL-receptor, apoB, cpt-1, spot14 and apoAI). Safety parameters include heart weight, heart rate, heart mGPDH activity, the expression and key genes involved in cardiac structure and function (e.g., Serca2, HCN2, Kv1.5, MHCα, MHCβ, Alpha1c), and standard plasma chemistry analysis (liver enzymes, electrolytes, creatinine). Endocrine effects are monitored by analysis of serum thyroid stimulating hormone (TSH). [Taylor et al., Mol Pharmacol 52(3): 542-7 (1997); Weitzel et al., Eur J Biochem 268(14):4095-4103 (2001)]
(§2) Methods: mGPDH activity was analyzed in isolated mitochondria using 2-(4-iodophenyl)-3-(4-nitrophenyl)-5-phenyl tetrazolium chloride as the terminal electron acceptor (Gardner R S, Analytical Biochemistry 59:272 (1974)). Commercially available GPDH was used in each assay as a standard (Sigma, St. Louis, Mo.). Changes in levels of mRNA for liver and heart genes are analyzed using reverse transcriptase followed by real-time PCR analysis. The analysis is performed using an iCycler instrument (Biorad) and appropriate primers by means of standard methodology [e.g., Schwab D A et al. (2000) Life Sciences 66: 1683-94]. The amounts of mRNA are normalized to an internal control, typically, cyclophilin. Serum TSH is measured using an enzyme immunoassay (EIA) kit designed for rat TSH (Amersham Pharmacia Biotech, Arlington Heights, Ill.).
(§3) Normal rats (Sprague-Dawley) were maintained on a standard diet. […] The compounds were brought up to an appropriate volume using PBS and BSA to maintain solubility within the pump. The compounds were chemically stable in the excipient at 37° C. for 7 days.
(§4) Values are expressed as percent of control. (Table 4)

[3] = Tissue distribution and pharmacokinetics following IP administration to normal rats; type: in vivo, SD rats; conditions: 10 mg/kg IP
From the text: At pre-selected time points following dosing, the rats were anesthetized using iso-fluorane and the peritoneal cavity was then opened and a blood sample was obtained from the abdominal vena cava. In addition, liver, kidney, and heart were excised and immersed in 3 volumes of cold 60% acetonitrile. The blood samples were briefly centrifuged and the plasma fraction was then extracted with 1.5 volumes of methanol, processed, and analyzed by LC-UV as described in Example G. The frozen liver, kidney, and heart tissue were homogenized in 60% v/v acetonitrile, centrifuged, and then analyzed by LC-UV. Pharmacokinetic parameters and AUC of the plasma and tissue concentration-time profiles were determined noncompartmentally by WinNonLin.

[4] = test system: thyroid stimulating hormone (TSH); test: Circulating TSH in rats (cholesterol-fed, ZDF); type: in vivo; conditions: ZDF rats, 50 mg/kg/d for 28 days
Protocol: as §2
Another concern with synthetic thyromimetics is the suppression of the endogenous thyroid axis. Thyroid homeostasis is maintained by the action of thyroid releasing hormone (TRH) and thyroid stimulating hormone (TSH). […] Although this particular side effect has been noted, it has typically been treated with less concern than the cardiac safety issues. […] Therefore previous investigators have measured TSH levels when testing synthetic thyromimetics and have used a 30% decrease of TSH as the denominator in their therapeutic index calculations. […] Therefore, both compounds suppress TSH as doses lower than that required to decrease circulating cholesterol. […] However, 0.2 mg/kg/d of Compound 18 in 28 day treated ZDF rats, decreased TSH levels greater than 90%.

serum cholesterol = test: Subacute study in cholesterol-fed rats, IP: serum cholesterol; type: in vivo; conditions: IP once-a-day for seven days
heart mGPDH activity = test: Subacute study in normal rats, continuous infusion: heart mGPDH activity; type: in vivo, rats (Sprague-Dawley); conditions: continuous infusion 1 mg/kg/day
From the text: as §1, §2, §3, §4

Cc1cc(OCP(=O)(O)O)cc(C)c1Cc1ccc(O)c(C(C)C)c1 [Compound 7, [3,5-dimethyl-4-(4′-hydroxy-3′-iso-propylbenzyl)phenoxy]methylphosphonic acid]
Ki [1]: 3.3 nM
Liver GPDH [2]: 399% of control
Heart AUC [3]: 32.8 nmol·h/g
Kidney AUC [3]: 5.0 nmol·h/g
Liver AUC [3]: 301.7 nmol·h/g
AUC ([3]; male, SD, rat, plasma): 31600 ng·h/mL
Cmax ([3]; male, SD, rat, plasma): 26000 ng/mL
Tmax ([3]; male, SD, rat, plasma): 20 min
CL/F ([3]; male, SD, rat, plasma, read-out: Cl(observed)/F (converted)): 5.01 mL/min/kg
Vd/F ([3]; male, SD, rat, plasma, read-out: Vz(observed)/F): 0.401 L/kg
AUMClast ([3]; plasma): 33.7098 μg * hr^2/mL
Tlast ([3]; plasma): 4 h
TSH versus vehicle [4]: no statistically significant difference from vehicle
doses that significantly decreased serum cholesterol (serum cholesterol): 1 to 100 mg/kg/day
Heart GPDH (heart mGPDH activity): 112% of control
